From US9308214B2, “Method for moderately increasing the proton conductivity of biological membranes with the aid of mitochondria-targeted delocalized cations” (MITOTECH S.A., priority 2008, dated 2016)

How the values were obtained:
[1] = system: yeast Saccharomyces cerevisiae; assay: Programmed death in yeast induced by amiodarone (colony survival); type: cell-based; conditions: 80 μM amiodarone; for survival of yeast cells (protective effect, in words): TPP tested from 100 nM to 400 nM; for survival of yeast cells: 1 hr at 30° C., survival without compound 2 percent, 3 independent experiments, p below 0.05
Description: Amiodarone (a calcium channel blocker) causes the death of the yeast Saccharomyces cerevisiae which by a number of features resembles apoptosis in higher eukaryotes. In the cells, amiodarone induces activation of a cascade of events leading to formation of reactive oxygen species and subsequent cell death. […] A source of formation of reactive oxygen species induced by amiodarone is a hyperpolarized mitochondrium.
The following compounds of structure (I) (SKQ1, SKQ3, and C12TPP) were selected for this study. […] Then a compound of structure (I) or mock and 80 μM amiodarone were added to the cell suspension. Cells were incubated for 1 hr at 30° C. and afterwards transferred to solid YPD medium containing 2% bactoagar. The number of colonies was counted after 2 days of incubation on solid medium. 100% survival corresponds to the number of colonies from zero time-point transferred to solid medium prior to addition of amiodarone.

[2] = Fluorescence correlation spectroscopy of SkQR1 micelles in aqueous solution with fatty acid (stearate); type: physicochemical
Protocol: Fluorescence correlation spectroscopy (FCS) is often used to study micellization of surfactants. In one report (Lu, et al. (2006) Analytica Chimica Acta, 556:216-225), R18, i.e., rhodamine with covalently attached fat tail was used as a marker. R18 itself forms large and poorly fluorescent aggregates in aqueous solution resulting in a small number of particles in the confocal volume (N) and a small fluorescence signal. When a detergent was added at a concentration above its CMC (the critical micelle concentration), an increase in total fluorescence and a significant increase in the number of particles N occurred. […] That was associated with lower diffusion coefficient of detergent micelles as compared to the R18 aggregates.
FIGS. 6A and B show the effect of a fatty acid (stearate) on the autocorrelation function of SkQR1 in water. […] For example, the number of particles in the confocal volume sharply increases. The constant of micelle formation for stearate is about 0.3 mM. In this case, fragmentation of the SkQR1 aggregates induced by such low concentrations of the fatty acid occurs. This fragmentation decreases the degree of the self-quenching of fluorescence that increases the total signal. […] The constant of micelle formation for anionic surfactants decreases under the influence of cationic surfactants or polymers. In that case, the total fluorescence signal was 141 kHz. […] The total fluorescence signal was 63 kHz that points to the beginning of the self-quenching of the dye in the micelles.
The fluctuations of the fluorescence signal in this case have no diffusion component yet. This process may be the output/input of SkQR1 molecules from water into micelles that can lead to fluctuations of the fluorescence due to the different quantum yield of fluorescence of the dye in polar and non-polar environments (Zettl, et al. (2005) J. Phys. Chem. B. 109:13397-13401).

[3] = Protonophore activity on black membrane model (diffusion potential on lipid bilayer); conditions: C12-TPP 1 μM in both compartments; ΔpH=1 by KOH; palmitic acid 1 mg/ml in membrane vs absent; pH 7.5
Protocol: To test penetrating ability of mitochondria-targeted compounds of structure (I), a method based on the ability of ions to penetrate through the bilayer phospholipid membrane moving along concentration gradient was used. The two chambers filled with an aqueous solution are separated by the bilayer membrane, the compound tested is added to one of the chambers. If a charged compound is capable of penetrating through the bilayer membrane, fast diffusion of the compound from the chamber with its high concentration to the chamber with its low concentration occurs, thus difference in the potentials is formed on the membrane. For ions carrying one charge and capable of passive penetrating through the membrane, the 10-fold concentration gradient allows to produce the potential of 60 mV (according to the Nernst equation).
This method was used in various studies on the ability of ions to penetrate through a bilipid membrane and is described in Starkov, et al. (1997) Biochem. Biophys. Acta, 1318:159-172. With this method, C12-TPP (compound of structure (I)) was tested.
Experiments were carried out in a Teflon cuvette having two compartments, and in a 0.6-mm hole between the two compartments the membrane was formed. Medium contained 50 mM Tris-HCl, 100 mM KCl, pH=7.5. ΔpH=1 was created by adding KOH to one of the cuvette compartments. […]

Cc1c(C)c(O)c(CCCCCCCCCC[P+](c2ccccc2)(c2ccccc2)c2ccccc2)c(C)c1O [SkQ3]
survival of yeast cells (protective effect, in words) [1]: significantly increase the survival

CC/N=c1/cc2oc3cc(NCC)c(C)cc3c(-c3ccccc3C(=O)OCCCCCCCCCCC3=CC(=O)C(C)=C(C)C3=O)c-2cc1C [SkQR1]
fluorescence signal from the sample ([2]; 1.5 μg/ml (about 5 μM) stearate): 67 kHz
aggregation state in aqueous solution ([2]; aggregates degrade in presence of low concentrations of fatty acids): forms micelles (or large aggregates) in aqueous solution
total fluorescence signal ([2]; further increase in concentration of stearate (above 50 μM)): 63 kHz
fluorescence signal from the sample ([2]; in water, absence of stearate): 44 kHz
total fluorescence signal ([2]; stearate up to 50 μM): 141 kHz
survival of yeast cells [1]: 7%

COc1c(O)c(C)c(CCCCCCCCCC[P+](c2ccccc2)(c2ccccc2)c2ccccc2)c(O)c1OC [MitoQ]
survival of yeast cells [1]: 8%

CCCCCCCCCCCC[P+](c1ccccc1)(c1ccccc1)c1ccccc1 [C12-TPP, dodecyl triphenylphosphonium]
diffusion potential (ΔΨ) in response to ΔpH creation [3]: presence of a fatty acid in the membrane facilitates an increase in diffusion potential
survival of yeast cells (protective effect, in words) [1]: even more effective than the tested antioxidants
optimum concentration of the protective effect ([1]; pronounced concentration dependence): 200 nM

Cc1c(O)cc(CCCCCCCCCC[P+](c2ccccc2)(c2ccccc2)c2ccccc2)c(O)c1C [SkQ1]
survival of yeast cells (protective effect, in words) [1]: significantly increase the survival
